In patent US20240360177A1, “PEPTIDES WITH ANTIMICROBIAL ACTIVITIES” (priority 2021, published 2024):
≈ marks a conversion by molar mass, not a printed value. Like-named read-outs stand apart in the source and are kept apart here. Starred links: 1 amine or outer side, 2 acyl side, 3 side chain; linkers in the order of their positions; H or OH if unused. Non-standard residues stand in square brackets, D forms with d. Residues, ends and D or L forms follow the SMILES beside them. NH(CH2)9CO = O=C(CCCCCCCCCN[*:1])[*:2]; Aoc = NCCCCCCCC(=O)O

Experiments:
C. dubliniensis = details: 24 h
Fusarium spp. = details: 48 h
[1] = system: Staphylococcus aureus ATCC 29213; assay type: cell-based
[2] = system: Mycobacterium smegmatis ATCC 700084; assay type: cell-based; details: ATCC 700084, 48 h
[3] = system: Klebsiella pneumoniae ATCC 13883; assay type: cell-based
[4] = system: Pseudomonas aeruginosa ATCC 27853; assay type: cell-based
C. parapsilosis = details: 24 h
[5] = system: Escherichia coli ATCC 25922; assay type: cell-based
[6] = system: Epidermophyton floccosum ATCC 52066
C. krusei = details: 24 h
C. gattii = details: 72 h
in vitro = details: human
[7] = system: Trichophyton rubrum ATCC MYA-4438
[8] = system: Shigella sonnei MMX 10772; experiment: Antibacterial broth microdilution MIC, Shigella sonnei; assay type: cell-based; details: CAMHB
[9] = system: Microsporum gypseum ATCC 14683
C. albicans = details: 24 h
[10] = system: Mycobacterium fortuitum ATCC 110; experiment: Antibacterial broth microdilution MIC, Mycobacterium fortuitum; assay type: cell-based; details: 48 hrs
C. tropicalis = details: 24 h
C. auris = details: 24 h
C. glabrata = details: 24 h
C. neoformans = details: 72 h
[11] = system: Salmonella senftenberg CDC 127; assay type: cell-based
Rhizopus arrhizus = details: 24 h
Paecilomyces variotii = details: 48 h
[12] = Acute toxicity in CD-1 mice; details: both sexes, mouse, in vivo
Experimental: Acute toxicity and subacute toxicity of ACPs were tested in CD-1 mice. In the acute toxicity study, groups of CD-1 male or female mice were administered single intravenous or intraperitoneal escalating doses (n=2-3 per dose) of the peptides dissolved in normal saline for injection or in phosphate buffered saline. The intravenous dose was administered via tail vein with a slow push over 15-20 seconds. Doses were escalated based on tolerability.

Scedosporium spp. = details: 72 h
Coccidioides species = details: N = 3 strains; 48-72 hrs; >50% inhibition
[13] = EC50 cytotoxicity in HepG2, intracellular ATP assay

Compound	MIC C. dubliniensis (C. dubliniensis)	MIC Range Fusarium spp. (Fusarium spp.)	MIC Staphylococcus aureus [1]	MIC Mycobacterium smegmatis [2]	MIC Klebsiella pneumoniae [3]	MIC Pseudomonas aeruginosa [4]	MIC C. parapsilosis (C. parapsilosis)	MIC Escherichia coli [5]	MIC Epidermophyton floccosum [6]	MIC C. krusei (C. krusei)	MIC C. gattii (C. gattii)	EC50 (in vitro; [13])	MIC Trichophyton rubrum [7]	MIC Shigella sonnei [8]	MIC Microsporum gypseum [9]	MIC C. albicans (C. albicans)	MIC Mycobacterium fortuitum [10]	MIC C. tropicalis (C. tropicalis)	MIC C. auris (C. auris)	MIC C. glabrata (C. glabrata)	also measured
N=C(N)NCCC[C@@H](N)C(=O)N[C@@H](CCCNC(=N)N)C(=O)N[C@H](CCCNC(=N)N)C(=O)NCC(=O)N[C@H](CCCNC(=N)N)C(=O)N[C@@H](CCCNC(=N)N)C(=O)N[C@H](CCCNC(=N)N)C(=O)NCC(=O)N[C@H](CCCNC(=N)N)C(=O)N[C@@H](CCCNC(=N)N)C(=O)N[C@H](CCCNC(=N)N)C(=O)N[C@@H](CCCNC(=N)N)C(=O)NCC(=O)N[C@H](CCCNC(=N)N)C(=O)N[C@@H](CCCNC(=N)N)C(=O)N[C@H](CCCNC(=N)N)C(=O)N[C@@H](CCCNC(=N)N)C(=O)N[C@@H](CS)C(=O)O [SEQ ID NO: 2, rRr-G-rRr-G-rRrR-G-rRrR-Cys] (H-[dR]R[dR]G[dR]R[dR]G[dR]R[dR]RG[dR]R[dR]RC-OH)	0.5 µg/mL (≈ 0.202 µM)	0.12 to 0.25 µg/mL	8 µg/mL (≈ 3.23 µM)	1 µg/mL (≈ 0.403 µM)	64 µg/mL (≈ 25.8 µM)	32 µg/mL (≈ 12.9 µM)	0.25 µg/mL (≈ 0.101 µM)	8 µg/mL (≈ 3.23 µM)	4 µg/mL (≈ 1.61 µM)	0.5 µg/mL (≈ 0.202 µM)	0.5 µg/mL (≈ 0.202 µM)	40 µg/mL (≈ 16.1 µM)	2 µg/mL (≈ 0.807 µM)	16 µg/mL (≈ 6.45 µM)	>64 µg/mL	0.5 µg/mL (≈ 0.202 µM)	4 µg/mL (≈ 1.61 µM)	0.25 µg/mL (≈ 0.101 µM)	2 µg/mL (≈ 0.807 µM)	0.5 µg/mL (≈ 0.202 µM)	EC50 (in vitro; EC50 cytotoxicity in HepG2 cells (50% cell viability)): 39.6 µg/mL (≈ 16 µM); MIC50 against Candida spp. (Candida spp.): 0.5 µg/mL (≈ 0.202 µM); MIC90 against Candida spp. (Candida spp.): 2 µg/mL (≈ 0.807 µM); MIC C. neoformans (C. neoformans): 0.5 µg/mL (≈ 0.202 µM); MIC Salmonella senftenberg [11]: 32 µg/mL (≈ 12.9 µM)
N=C(N)NCCC[C@@H](N)C(=O)N[C@@H](CCCNC(=N)N)C(=O)N[C@H](CCCNC(=N)N)C(=O)NCCCCCCCCCC(=O)N[C@H](CCCNC(=N)N)C(=O)N[C@@H](CCCNC(=N)N)C(=O)N[C@H](CCCNC(=N)N)C(=O)NCCCCCCCC(=O)N[C@H](CCCNC(=N)N)C(=O)N[C@@H](CCCNC(=N)N)C(=O)N[C@H](CCCNC(=N)N)C(=O)N[C@@H](CCCNC(=N)N)C(=O)NCCCCCCCC(=O)N[C@H](CCCNC(=N)N)C(=O)N[C@@H](CCCNC(=N)N)C(=O)N[C@H](CCCNC(=N)N)C(=O)N[C@@H](CCCNC(=N)N)C(=O)O [SEQ ID NO: 32, rRr-(Ada)-rRr-(Aoa)-rRrR-(Aoa)-rRrR] (H-[dR]R[dR][NH(CH2)9CO][dR]R[dR][Aoc][dR]R[dR]R[Aoc][dR]R[dR]R-OH)	1 µg/mL (≈ 0.376 µM)	0.25 to 1 µg/mL	8 µg/mL (≈ 3.01 µM)	0.5 µg/mL (≈ 0.188 µM)	4 µg/mL (≈ 1.51 µM)	16 µg/mL (≈ 6.02 µM)	0.25 µg/mL (≈ 0.0941 µM)	2 µg/mL (≈ 0.753 µM)	4 µg/mL (≈ 1.51 µM)	0.5 µg/mL (≈ 0.188 µM)	0.25 µg/mL (≈ 0.0941 µM)	> 300 µg/mL	8 µg/mL (≈ 3.01 µM)	4 µg/mL (≈ 1.51 µM)	>64 µg/mL	1 µg/mL (≈ 0.376 µM)	2 µg/mL (≈ 0.753 µM)	0.5 µg/mL (≈ 0.188 µM)	4 µg/mL (≈ 1.51 µM)	0.5 µg/mL (≈ 0.188 µM)	MIC Range Rhizopus arrhizus (Rhizopus arrhizus): 0.5 to 8 µg/mL; MIC Range Lomentospora prolificans (Lomentospora prolificans): 0.25 µg/mL (≈ 0.0941 µM); MIC Range Paecilomyces variotii (Paecilomyces variotii): 0.25 µg/mL (≈ 0.0941 µM); MIC C. neoformans (C. neoformans): 0.25 µg/mL (≈ 0.0941 µM); MTD ([12]; single IP dose, read-out: Tolerated single intraperitoneal dose): 10 to 15 mg/kg; MTD ([12]; single IV dose via tail vein, read-out: Tolerated single intravenous dose): 5 to 7.5 mg/kg; MIC Range Scedosporium spp. (Scedosporium spp.): ≤0.12 µg/mL; MIC Salmonella senftenberg [11]: 4 µg/mL (≈ 1.51 µM); MIC Range Coccidioides species (Coccidioides species): 0.25 to 0.5 µg/mL
